These results are taken from PMC5748433, “Study on the effect of EMD386088, a 5-HT6 receptor partial agonist, in enhancing the anti-immobility action of some antidepressants in rats” (Naunyn-Schmiedeberg's Archives of Pharmacology, 2017).

The test system of series [1] is rats. The series can be described thus: Modified forced swim test (FST) in rats. The class given is in vivo, rat. The settings on record: EMD386088 alone 2.5 mg/kg i.p. Here is the method:
[…]. All drugs were dissolved in distilled water immediately before administration in a volume of 2 mL/kg. All the compounds were administered intraperitoneally (i.p.). […] Control animals received vehicle according to the same schedule.
The experiment was carried out according to the modified by Detke et al. ([1995]) method of Porsolt et al. ([1978]). On the first day of an experiment, the animals were gently individually placed in Plexiglas cylinders (40 cm high, 18 cm in diameter) containing 30 cm of water maintained at 23–25 °C for 15 min. On removal from water, the rats were placed for 30 min in a Plexiglas box under 60-W bulb to dry. On the following day (24 h later), the rats were re-placed in the cylinder and the total duration of immobility, swimming, and climbing was recorded during the whole 5-min test period. The swimming behavior entailed active swimming motions, e.g., moving horizontally around in the cylinder. Climbing activity consisted of upward directed movements of the forepaws along the side of the swim chamber, and immobility was assigned when no additional activity was observed other than that necessary to keep the rat’s head above the water (Detke et al. [1995]). Fresh water was used for each animal.
(§1) The data of behavioral studies were evaluated using two-way analysis of variance (ANOVA) followed by Bonferroni’s post hoc test, p < 0.05 was considered significant.

Another series deals with opioid μ receptors. The arrangement: method as in Jastrzębska-Więsek et al. [2013]. Particulars: ref Jastrzębska-Więsek et al. [2013]; cited from earlier work.
The test system of series [2] is rats. The series can be described thus: Open field (OF) test in rats, locomotor/exploratory activity. The class given is in vivo, rat. Particulars: 2.5 mg/kg i.p. 30 min before test, 5-min session, mean ± SEM, 2.5 mg/kg. As for the experimental part: All drugs were dissolved in distilled water immediately before administration in a volume of 2 mL/kg. All the compounds were administered intraperitoneally (i.p.). […] Control animals received vehicle according to the same schedule.
The experiment was performed using Motor Monitor System (Campden Instruments, Ltd., UK) consisted of two SmartFrame Open Field stations (40 × 40 × 38 cm) with 16 × 16 beams, located in sound attenuating chambers and connected to PC software by control chassis. Individual vehicle- or drug-injected animals were gently placed in the center of the station. An automated motor monitor system recorded ambulation (the number of crossings in X and Y axis), the number of rearing episodes, and total distance covered by a rat for 5 min.
as §1

The target of the next series is recombinant human CYP3A4 (Homo sapiens, UniProt P08684). Particulars: recombinant human CYP3A4, P450-Glo, 0.025 to 25 μM.
Sequence of recombinant human CYP3A4 (P08684 whole entry): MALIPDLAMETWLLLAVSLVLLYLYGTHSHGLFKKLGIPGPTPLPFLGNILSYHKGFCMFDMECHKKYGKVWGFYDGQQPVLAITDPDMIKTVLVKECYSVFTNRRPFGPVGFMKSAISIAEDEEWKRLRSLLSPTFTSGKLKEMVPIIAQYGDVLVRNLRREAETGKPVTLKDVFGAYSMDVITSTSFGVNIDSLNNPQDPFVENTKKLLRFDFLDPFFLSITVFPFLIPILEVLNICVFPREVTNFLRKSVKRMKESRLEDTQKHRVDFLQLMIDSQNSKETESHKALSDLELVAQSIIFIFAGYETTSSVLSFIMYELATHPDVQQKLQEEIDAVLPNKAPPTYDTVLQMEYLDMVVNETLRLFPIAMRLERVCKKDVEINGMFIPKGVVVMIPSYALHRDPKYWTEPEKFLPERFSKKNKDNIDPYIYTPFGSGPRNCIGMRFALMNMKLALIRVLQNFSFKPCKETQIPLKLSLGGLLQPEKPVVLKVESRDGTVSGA
For another series, the system named is dopamine D3. The arrangement: method as in Jastrzębska-Więsek et al. [2013]. Particulars: ref Jastrzębska-Więsek et al. [2013]; cited from earlier work.
Series [3] deals with rats. The arrangement: method as in Jastrzębska-Więsek et al. [2015]. Particulars: EMD386088 alone 5 mg/kg i.p., ref Jastrzębska-Więsek et al. [2015]; cited from earlier work.

SMILES strings stand for the structures. Where “and” joins values, the source holds several entries; their conditions need not be identical. Equal entries are not always repeated.

Procedure for recombinant human CYP3A4: The enzymatic reactions were performed in white polystyrene, flat-bottom Nunc™ MicroWell™ 96-Well Microplates (Thermo Scientific, Waltham, MA USA). The luminescence signal was measured with a microplate reader in luminescence mode (EnSpire, PerkinElmer, Waltham, MA USA).

Take `Cc1[nH]c2ccc(Cl)cc2c1C1=CCNCC1.Cl` [EMD386088, 5-chloro-2-methyl-3-(1,2,3,6-tetrahydro-4-pyridinyl)-1H-indole hydrochloride]: in the series on rats [1], the “activity in the FST” value is on record as “not active”. The “affinity for opioid μ receptors” value in the series on opioid μ receptors is listed as “no affinity”. In addition, in the series with rats [2], the “Exploratory activity Ambulation X” value was 261 ± 29 and 262 ± 28 and 262 ± 35 and 263 ± 28; the “Exploratory activity Ambulation Y” value is 261 ± 31 and 267 ± 37 and 262 ± 23; the “Exploratory activity Rearings” value was 90 ± 3 and 91 ± 4 and 89 ± 4 and 92 ± 9; the “Exploratory activity Total distance (cm)” value was 2677 ± 232 cm and 2721 ± 196 cm and 2644 ± 220 cm and 2722 ± 145 cm. The “influence on CYP3A4 activity” value on recombinant human CYP3A4 is given as “did not influence on CYP3A4 activity”. The “affinity for dopamine D3” value with dopamine D3 is listed as “no affinity”. Also, in the series with rats [3], the “antidepressant-like effect in the FST” value is reported as “exerts an antidepressant-like effect”.
